Converted amounts (≈) assume the structure as drawn.
Assays:
Alcaligenes faecalis A 1 = test: minimum inhibitory concentration, agar dilution assay; format: cell-based; details: A1, agar dilution, 35° C., 20 hours, read-out: minimum inhibitory concentration
Outline: (§1)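 Two-fold dilutions of compound in sterile water were mixed into molten brain heart infusion agar at about 60 °C. Plates were inoculated with Trypto-Soy broth cultures (35 °C, 18–20 h) diluted to approximately 10^8 cells/ml. After 20 h at 35 °C, MIC was taken as the lowest concentration showing no growth.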

[1] = system: Bacillus subtilis ATCC 6633; test: as above; format: cell-based; details: ATCC6633, agar dilution, 35° C., 20 hours, read-out: minimum inhibitory concentration
Outline: as §1

[2] = system: Citrobacter freundii GN 346; test: as above; format: cell-based; details: GN346, agar dilution, 35° C., 20 hours, read-out: minimum inhibitory concentration
Outline: as §1

[3] = system: Comamonas terrigena B-996; test: as above; format: cell-based; details: B996, agar dilution, 35° C., 20 hours, read-out: minimum inhibitory concentration
Outline: as §1

[4] = system: Enterobacter aerogenes E19; test: as above; format: cell-based; details: Klebsiella aerogenes, E19; agar dilution, 35° C., 20 hours; read-out: minimum inhibitory concentration
Outline: as §1

Enterobacter cloacae 45 = test: as above; format: cell-based; details: Enterobacter cloacae, 45; agar dilution, 35° C., 20 hours; read-out: minimum inhibitory concentration
Outline: as §1

Enterobacter sp. E8 = test: as above; format: cell-based; details: SP.E8, agar dilution, 35° C., 20 hours, read-out: minimum inhibitory concentration
Outline: as §1

Escherichia coli K-12 = test: as above; format: cell-based; details: K12, agar dilution, 35° C., 20 hours, read-out: minimum inhibitory concentration
Outline: as §1

Escherichia coli RGN 823 = test: as above; format: cell-based; details: RGN823, agar dilution, 35° C., 20 hours, read-out: minimum inhibitory concentration
Outline: as §1

[5] = system: Klebsiella pneumoniae K-13; test: as above; format: cell-based; details: K13, agar dilution, 35° C., 20 hours, read-out: minimum inhibitory concentration
Outline: as §1

Proteus mirabilis P6 = test: as above; format: cell-based; details: P6, agar dilution, 35° C., 20 hours, read-out: minimum inhibitory concentration
Outline: as §1

Proteus rettgeri P7 = test: as above; format: cell-based; details: Providencia rettgeri, P7; agar dilution, 35° C., 20 hours; read-out: minimum inhibitory concentration
Outline: as §1

Proteus sp. P22 = test: as above; format: cell-based; details: agar dilution, 35° C., 20 hours; read-out: minimum inhibitory concentration
Outline: as §1

Proteus vulgaris GN76 = test: as above; format: cell-based; details: GN76, agar dilution, 35° C., 20 hours, read-out: minimum inhibitory concentration
Outline: as §1

Providencia sp. P8 = test: as above; format: cell-based; details: SP.P8, agar dilution, 35° C., 20 hours, read-out: minimum inhibitory concentration
Outline: as §1

[6] = system: Pseudomonas aeruginosa IFO3445; test: as above; format: cell-based; details: IFO3445, agar dilution, 35° C., 20 hours, read-out: minimum inhibitory concentration
Outline: as §1

[7] = system: Pseudomonas aeruginosa NCTC10490; test: as above; format: cell-based; details: NCTC10490, agar dilution, 35° C., 20 hours, read-out: minimum inhibitory concentration
Outline: as §1

Sarcina lutea = test: as above; format: cell-based; details: Micrococcus luteus; agar dilution, 35° C., 20 hours; read-out: minimum inhibitory concentration
Outline: as §1

Serratia marcescens S18 = test: as above; format: cell-based; details: S18, agar dilution, 35° C., 20 hours, read-out: minimum inhibitory concentration
Outline: as §1

Serratia marcescens T55 = test: as above; format: cell-based; details: T55, agar dilution, 35° C., 20 hours, read-out: minimum inhibitory concentration
Outline: as §1

[8] = system: Staphylococcus aureus FDA 209P; test: as above; format: cell-based; details: FDA209P, agar dilution, 35° C., 20 hours, read-out: minimum inhibitory concentration
Outline: as §1

[9] = system: Staphylococcus aureus Russell; test: as above; format: cell-based; details: agar dilution, 35° C., 20 hours, read-out: minimum inhibitory concentration
Outline: as §1

[10] = system: Staphylococcus aureus Smith; test: as above; format: cell-based; details: agar dilution, 35° C., 20 hours, read-out: minimum inhibitory concentration
Outline: as §1

[11] = system: Staphylococcus epidermidis; test: as above; format: cell-based; details: agar dilution, 35° C., 20 hours, read-out: minimum inhibitory concentration
Outline: as §1

[12] = system: Staphylococcus aureus Smith strain; test: Infection treating test; format: in vivo, Staphylococcus aureus (in ddy male mice); details: sc, 2 h, mice infected intraperitoneally, 5×10^5 cells per mouse, subcutaneous, two hours after infection, read-out: CD50 (the source's name)
Protocol: The in vivo activities of the compounds of formula (I-d) were determined by using mice (five per group, ddy male mice, Shizuoka) which had been intraperitoneally infected with Staphylococcus aureus Smith strain in an amount of 5×10^5 cells per mouse. Two hours after the infection, an injection containing a sodium salt of each of the compounds of formula (I-d) was subcutaneously administered to the mice.

[13] = system: Gram-positive and Gram-negative bacteria; test: antibiotic activity (antimicrobial spectrum); format: cell-based; details: comparison in words
Protocol: The minimum inhibitory concentrations of the compounds of formula (I-a-1) or (I-b-1) in Tables I-1 to I-7 and the known compounds in Table I-8 on the various microorganisms shown in the above tables were measured by an agar dilution assay method using a brain heart infusion agar medium "Difco" (a product of Difco Laboratories Inc.)
A sample of the test compound was dissolved in sterile distilled water and diluted to prepare a two-fold dilution series of the compound solution. In a petri plate of 9 cm diameter, 1 ml of the compound solution was added to 9 ml of molten sterile heart infusion agar medium (Difco Laboratories Inc.) at about 60° C. to prepare the compound-containing agar plate. An overnight culture of each test organism indicated in the above table which was prepared by stationary cultivation in Trypto-Soy broth (Eiken Chemi. Co., Ltd.) at 35° C. for 18 to 20 hours, was diluted with the Trypto-Soy broth to give approximately 10^8 cells/ml and the diluted inoculum was inoculated onto the compound-containing agar plates. After cultivating the plates at 35° C. for 20 hours, the growth of the organism was observed. The minimum concentration of the compound at which no growth of the microorganism was noted was determined, and defined as the minimum inhibitory concentration of the test compound.

Compound	MIC (Alcaligenes faecalis A 1) [µg/mL]	MIC [1] [µg/mL]	MIC [2] [µg/mL]	MIC [3] [µg/mL]	MIC [4] [µg/mL]	MIC (Enterobacter cloacae 45) [µg/mL]	MIC (Enterobacter sp. E8) [µg/mL]	MIC (Escherichia coli K-12) [µg/mL]	MIC (Escherichia coli RGN 823) [µg/mL]	MIC [5] [µg/mL]	MIC (Proteus mirabilis P6) [µg/mL]	MIC (Proteus rettgeri P7) [µg/mL]	MIC (Proteus sp. P22) [µg/mL]	MIC (Proteus vulgaris GN76) [µg/mL]	MIC (Providencia sp. P8) [µg/mL]	MIC [6] [µg/mL]	MIC [7] [µg/mL]	MIC (Sarcina lutea) [µg/mL]	MIC (Serratia marcescens S18) [µg/mL]	MIC (Serratia marcescens T55) [µg/mL]	further results
CC(O)C1C(=O)N2C(C(=O)O)=C(Sc3ncccn3)CC12 (stereo not drawn) [Example 64, 5,6-cis-3-(2-Pyrimidinylthio)-6-(1-hydroxyethyl)-7-oxo-1-azabicyclo[3.2.0]hept-2-ene-2-carboxylic acid]	0.05 (≈ 0.163 µM)	< 0.007	6.25 (≈ 20.3 µM)	< 0.007	3.13 (≈ 10.2 µM)	12.5 (≈ 40.7 µM)	0.013 (≈ 0.0423 µM)	0.1 (≈ 0.325 µM)	1.56 (≈ 5.08 µM)	25 (≈ 81.3 µM)	0.78 (≈ 2.54 µM)	1.56 (≈ 5.08 µM)	25 (≈ 81.3 µM)	6.25 (≈ 20.3 µM)	0.2 (≈ 0.651 µM)	25 (≈ 81.3 µM)	25 (≈ 81.3 µM)	< 0.007	12.5 (≈ 40.7 µM)	12.5 (≈ 40.7 µM)	MIC [8]: < 0.007 µg/mL; MIC [9]: 0.013 µg/mL (≈ 0.0423 µM); MIC [10]: 0.025 µg/mL (≈ 0.0813 µM); MIC [11]: 0.025 µg/mL (≈ 0.0813 µM); ED50 [12]: 0.25 mg/kg
CC(=O)NCCSC1=C(C(=O)O)N2C(=O)C(C(C)O)C2C1 (stereo not shown) [PS-3B . Na, reference compound]	–	–	–	–	–	–	–	–	–	–	–	–	–	–	–	–	–	–	–	–	ED50 [12]: 2 mg/kg
CC(=O)NCCSC1=C(C(=O)O)N2C(=O)C(C(C)O)C2C1 (stereo not shown) [PS-3, 3-(2-acetamidoethylthio)-6-(1-hydroxyethyl)-7-oxo-1-azabicyclo[3.2.0]hept-2-ene-2-carboxylic acid]	–	–	–	–	–	–	–	–	–	–	–	–	–	–	–	–	–	–	–	–	antibiotic activity (in words) [13]: better antibiotic activity than cephazolin (CEZ)
CC(C)C1C(=O)N2C(C(=O)O)=C(SC3CCCCC3)CC12 (stereo not shown)	6.25 (≈ 20.2 µM)	0.2 (≈ 0.646 µM)	> 100	0.007 (≈ 0.0226 µM)	> 100	> 100	> 100	> 100	> 100	> 100	100 (≈ 323 µM)	> 100	100 (≈ 323 µM)	> 100	> 100	> 100	50 (≈ 162 µM)	0.025 (≈ 0.0808 µM)	> 100	> 100	MIC [8]: 0.025 µg/mL (≈ 0.0808 µM); MIC [9]: 0.025 µg/mL (≈ 0.0808 µM); MIC [10]: 0.05 µg/mL (≈ 0.162 µM); MIC [11]: 0.05 µg/mL (≈ 0.162 µM)
CC(O)C1C(=O)N2C(C(=O)O)=C(Sc3ccncc3)CC12 (stereo not drawn) [Example 60, 5,6-cis-3-(4-Pyridylthio)-6-(1-hydroxyethyl)-7-oxo-1-azabicyclo[3.2.0]hept-2-ene-2-carboxylic acid]	< 0.007	< 0.007	6.25 (≈ 20.4 µM)	< 0.007	1.56 (≈ 5.09 µM)	6.25 (≈ 20.4 µM)	0.025 (≈ 0.0816 µM)	0.05 (≈ 0.163 µM)	6.25 (≈ 20.4 µM)	25 (≈ 81.6 µM)	0.39 (≈ 1.27 µM)	0.78 (≈ 2.55 µM)	50 (≈ 163 µM)	50 (≈ 163 µM)	0.2 (≈ 0.653 µM)	1.56 (≈ 5.09 µM)	1.56 (≈ 5.09 µM)	< 0.007	50 (≈ 163 µM)	25 (≈ 81.6 µM)	MIC [8]: < 0.007 µg/mL; MIC [9]: < 0.007 µg/mL; MIC [10]: < 0.007 µg/mL; MIC [11]: < 0.007 µg/mL; ED50 [12]: 0.125 mg/kg
CCC1C(=O)N2C(C(=O)O)=C(SC3CCCCC3)CC12 (stereo not shown) [Example 67, Sodium 3-cyclohexylthio-6-ethyl-7-oxo-1-azabicyclo[3.2.0.]hept-2-ene-2-carboxylate]	5.6	0.09	> 180	< 0.01	> 180	> 180	> 180	180	180	> 180	45	180	90	180	180	180	22.5	< 0.01	> 180	> 180	MIC [8]: < 0.01 µg/mL; MIC [9]: < 0.01 µg/mL; MIC [10]: 0.04 µg/mL; MIC [11]: 0.04 µg/mL
CC(C)C1C(=O)N2C(C(=O)O)=C(Sc3ccccc3)CC12 (stereo not shown)	6.25 (≈ 20.6 µM)	0.1 (≈ 0.33 µM)	> 100	0.007 (≈ 0.0231 µM)	> 100	> 100	> 100	50 (≈ 165 µM)	50 (≈ 165 µM)	> 100	> 100	100 (≈ 330 µM)	100 (≈ 330 µM)	> 100	25 (≈ 82.4 µM)	25 (≈ 82.4 µM)	6.25 (≈ 20.6 µM)	0.013 (≈ 0.0429 µM)	> 100	> 100	MIC [8]: 0.013 µg/mL (≈ 0.0429 µM); MIC [9]: 0.025 µg/mL (≈ 0.0824 µM); MIC [10]: 0.2 µg/mL (≈ 0.659 µM); MIC [11]: 0.025 µg/mL (≈ 0.0824 µM)
